Assay results from ChEMBL document CHEMBL2021760, “4-(1-Phenyl-1H-pyrazol-4-yl)quinolines as novel, selective and brain penetrant metabotropic glutamate receptor 4 positive allosteric modulators” (Bioorg Med Chem Lett, 2012).
In brackets after ≈: the same amount, converted by molar mass.

Tests used:
[1] = target: T1, Metabotropic glutamate receptor 4 (Homo sapiens, UniProt Q14833); test: Positive allosteric modulation of human mGlu4 receptor expressed in BHK cells assessed as potentiation of glutamate-induced calcium mobilization by FLIPR analysis; format: functional, cell-based
[2] = target: T1, Metabotropic glutamate receptor 4; test: Positive allosteric modulation of human mGlu4 receptor expressed in BHK cells assessed as potentiation of glutamate-induced calcium mobilization by FLIPR analysis relative to PHCCC; format: functional, cell-based
[3] = Kinetic solubility of the compound at pH 4.0; format: physicochemical; conditions: buffer, read-out: Kinetic_solubility
Brain [4] = test: Fraction unbound in rat brain; format: ADME, tissue-based
[5] = Lipophilicity, log D of compound at pH 7.4; format: physicochemical; conditions: buffer
Cerebrospinal fluid = test: Drug uptake in rat CSF at 10 mg/kg, po; format: ADME, organism-based; set-up: dose 10 mg/kg, route oral; conditions: in vivo
Plasma = test: Plasma concentration in rat at 10 mg/kg, po; format: ADME, organism-based; set-up: dose 10 mg/kg, route oral; conditions: in vivo
CYP2B6 = target: T2, CYP2B6 (Homo sapiens, UniProt P20813); test: Inhibition of CYP2B6 at 5 uM; format: ADME
T2 sequence (P20813 whole entry): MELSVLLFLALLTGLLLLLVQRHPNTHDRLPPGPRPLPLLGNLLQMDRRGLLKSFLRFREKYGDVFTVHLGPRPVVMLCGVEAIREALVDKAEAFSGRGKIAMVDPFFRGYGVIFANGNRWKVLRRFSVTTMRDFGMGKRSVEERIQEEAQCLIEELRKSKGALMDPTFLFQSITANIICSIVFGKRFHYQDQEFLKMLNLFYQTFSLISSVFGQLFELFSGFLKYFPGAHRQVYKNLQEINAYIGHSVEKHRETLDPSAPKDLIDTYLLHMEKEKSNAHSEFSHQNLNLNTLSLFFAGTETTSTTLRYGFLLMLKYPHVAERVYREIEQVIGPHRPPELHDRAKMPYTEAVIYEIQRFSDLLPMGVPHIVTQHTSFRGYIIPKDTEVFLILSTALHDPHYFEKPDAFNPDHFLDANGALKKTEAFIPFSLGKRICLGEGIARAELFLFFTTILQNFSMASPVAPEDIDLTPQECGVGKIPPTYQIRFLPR

Rattus norvegicus = organism: Rattus norvegicus; test: Intrinsic clearance in rat; format: ADME, organism-based; conditions: in vivo
[6] = Ratio of drug level in brain to plasma in rat at 10 mg/kg, po; format: ADME, organism-based; set-up: dose 10 mg/kg, route oral; conditions: read-out: BPR
[7] = Kinetic solubility of the compound at pH 7.4; format: physicochemical; conditions: buffer, read-out: Kinetic_solubility
CYP3A4 = CYP3A4 (Homo sapiens, UniProt P08684); test: Inhibition of CYP3A4 at 5 uM; format: ADME
Brain [8] = test: Drug uptake in rat brain at 10 mg/kg, po; format: ADME, organism-based; set-up: dose 10 mg/kg, route oral; conditions: in vivo
[9] = Plasma protein binding in rat; format: ADME, cell-free; conditions: read-out: PPB (converted)
CYP2C9 = CYP2C9 (Homo sapiens, UniProt P11712); test: Inhibition of CYP2C9 at 5 uM; format: ADME
[10] = target: T1, Metabotropic glutamate receptor 4; test: Positive allosteric modulation of human mGlu4 receptor expressed in BHK cells assessed as fold shift in calcium mobilization by FLIPR analysis relative to glutamate; format: functional, cell-based
CYP2C19 = CYP2C19 (Homo sapiens, UniProt P33261); test: Inhibition of CYP2C19 at 5 uM; format: ADME
CYP2C19, sequence (P33261 whole entry): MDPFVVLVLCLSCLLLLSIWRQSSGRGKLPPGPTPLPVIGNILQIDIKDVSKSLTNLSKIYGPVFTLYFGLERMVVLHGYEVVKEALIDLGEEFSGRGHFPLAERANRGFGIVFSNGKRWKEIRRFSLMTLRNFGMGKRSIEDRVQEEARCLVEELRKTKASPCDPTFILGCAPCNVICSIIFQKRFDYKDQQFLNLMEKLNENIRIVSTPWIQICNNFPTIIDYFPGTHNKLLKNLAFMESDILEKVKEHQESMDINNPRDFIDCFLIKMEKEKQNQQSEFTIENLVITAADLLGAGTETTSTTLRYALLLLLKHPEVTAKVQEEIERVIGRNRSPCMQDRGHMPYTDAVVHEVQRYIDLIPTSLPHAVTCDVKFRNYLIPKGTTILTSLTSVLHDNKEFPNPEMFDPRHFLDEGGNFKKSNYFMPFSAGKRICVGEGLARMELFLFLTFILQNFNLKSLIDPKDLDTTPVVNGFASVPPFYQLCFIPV

T1 sequence (Q14833 whole entry): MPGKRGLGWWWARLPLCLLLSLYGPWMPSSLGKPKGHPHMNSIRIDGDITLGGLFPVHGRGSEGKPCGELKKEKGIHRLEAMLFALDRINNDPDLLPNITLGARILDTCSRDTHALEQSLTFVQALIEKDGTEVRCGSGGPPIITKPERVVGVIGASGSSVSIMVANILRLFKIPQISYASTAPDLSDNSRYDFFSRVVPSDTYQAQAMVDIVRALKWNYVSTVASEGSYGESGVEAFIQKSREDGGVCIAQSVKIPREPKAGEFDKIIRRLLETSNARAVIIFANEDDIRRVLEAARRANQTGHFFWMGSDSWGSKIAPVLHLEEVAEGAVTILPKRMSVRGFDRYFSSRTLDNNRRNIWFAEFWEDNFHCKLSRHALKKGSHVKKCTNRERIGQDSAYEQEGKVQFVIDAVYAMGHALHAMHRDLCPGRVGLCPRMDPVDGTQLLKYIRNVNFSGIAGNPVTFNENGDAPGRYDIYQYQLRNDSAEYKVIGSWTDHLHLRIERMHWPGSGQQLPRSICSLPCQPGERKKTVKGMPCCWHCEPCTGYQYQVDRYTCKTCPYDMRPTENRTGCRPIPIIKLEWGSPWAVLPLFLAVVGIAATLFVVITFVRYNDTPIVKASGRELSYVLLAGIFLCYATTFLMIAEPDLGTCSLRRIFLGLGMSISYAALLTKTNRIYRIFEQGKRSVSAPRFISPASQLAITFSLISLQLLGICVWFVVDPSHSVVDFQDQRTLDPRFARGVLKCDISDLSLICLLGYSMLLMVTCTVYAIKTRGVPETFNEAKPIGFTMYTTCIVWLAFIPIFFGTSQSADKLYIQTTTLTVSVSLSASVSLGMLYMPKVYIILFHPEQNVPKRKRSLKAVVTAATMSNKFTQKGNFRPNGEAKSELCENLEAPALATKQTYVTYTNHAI
CYP3A4, sequence (P08684 whole entry): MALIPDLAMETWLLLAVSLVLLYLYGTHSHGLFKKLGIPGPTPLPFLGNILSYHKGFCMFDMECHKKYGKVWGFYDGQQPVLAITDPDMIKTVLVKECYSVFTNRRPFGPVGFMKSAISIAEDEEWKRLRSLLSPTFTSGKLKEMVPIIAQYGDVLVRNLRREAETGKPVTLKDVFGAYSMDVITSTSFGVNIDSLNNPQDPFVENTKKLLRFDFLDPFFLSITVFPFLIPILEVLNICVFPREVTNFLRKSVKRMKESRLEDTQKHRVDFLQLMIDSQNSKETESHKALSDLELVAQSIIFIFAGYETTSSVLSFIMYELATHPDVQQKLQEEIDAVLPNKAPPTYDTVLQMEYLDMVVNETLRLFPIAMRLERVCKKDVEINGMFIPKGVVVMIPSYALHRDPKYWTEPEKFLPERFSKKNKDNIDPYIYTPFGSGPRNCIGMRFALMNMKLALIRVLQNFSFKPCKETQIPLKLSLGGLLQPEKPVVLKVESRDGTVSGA
CYP2C9, sequence (P11712 whole entry): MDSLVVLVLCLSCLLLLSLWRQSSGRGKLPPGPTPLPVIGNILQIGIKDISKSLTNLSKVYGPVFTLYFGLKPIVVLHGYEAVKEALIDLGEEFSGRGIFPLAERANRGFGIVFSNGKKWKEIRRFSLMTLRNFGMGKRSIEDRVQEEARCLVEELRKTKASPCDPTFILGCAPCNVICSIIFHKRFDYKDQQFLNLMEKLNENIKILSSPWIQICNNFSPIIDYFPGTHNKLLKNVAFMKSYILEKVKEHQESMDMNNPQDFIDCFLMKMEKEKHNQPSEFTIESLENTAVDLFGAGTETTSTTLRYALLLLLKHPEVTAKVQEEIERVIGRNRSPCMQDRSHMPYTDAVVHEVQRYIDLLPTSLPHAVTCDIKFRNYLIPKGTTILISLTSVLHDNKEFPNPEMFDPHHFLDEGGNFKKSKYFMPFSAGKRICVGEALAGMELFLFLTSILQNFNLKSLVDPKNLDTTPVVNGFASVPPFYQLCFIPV

SMILES	EC50 [1]	Emax [2]	further results
Cc1c(-c2ccnc3ccccc23)cnn1-c1ccccc1	670 nM	130%	
c1ccc2c(-c3cn[nH]c3)ccnc2c1	> 10000 nM	6%	
Fc1ccccc1-n1cc(-c2ccnc3ccccc23)cn1	1100 nM	70%	
Cc1nn(-c2ccccc2)c(C)c1-c1ccnc2ccccc12	840 nM	150%	
Clc1ccc2c(-c3cnn(-c4ccccc4)c3)ccnc2c1	590 nM	100%	
Oc1ccc2c(-c3cnn(-c4ccccc4)c3)ccnc2c1	> 10000 nM	4%	
c1ccc(-n2cc(-c3ncnc4ccccc34)cn2)cc1	3500 nM	35%	
COCCCOc1ccc2c(-c3cnn(-c4ccccc4)c3)ccnc2c1	250 nM	88%	
c1ccc(-n2cc(-c3ccnc4cc(OCCCN5CCCC5)ccc34)cn2)cc1	> 10000 nM	7%	
FC(F)(F)c1ccc2c(-c3cnn(-c4ccccc4)c3)ccnc2c1	550 nM	140%	
c1ccc(COc2ccc3c(-c4cnn(-c5ccccc5)c4)ccnc3c2)cc1	640 nM	110%	
c1ccc(-n2cc(-c3c[nH]c4ccccc34)cn2)cc1	2500 nM	44%	
CC(=O)N1CCN(CCOc2ccc3c(-c4cnn(-c5ccccc5)c4)ccnc3c2)CC1	690 nM	75%	
Cc1nn(-c2ccccc2)cc1-c1ccnc2ccccc12	480 nM	130%	
COc1ccc2c(-c3cnn(-c4ccccc4)c3)ccnc2c1	220 nM	79%	solubility kinetic [3]: 120 µM (≈ 36.2 µg/mL); Fu (Brain [4]): 0.1%; logD [5]: 5; Drug uptake (Cerebrospinal fluid): < 1 ng/mL; Cp (Plasma): 220 ng/mL; inhibition at 5 µM (CYP2B6): 35%; CL (Rattus norvegicus): 68 mL/min; Kp [6]: 0.8; solubility kinetic [7]: 4.6 µM (≈ 1.39 µg/mL); inhibition at 5 µM (CYP3A4): 35%; Drug uptake (Brain [8]): 180 ng/g; fraction unbound [9]: 0.002
CCNC(=O)Oc1ccc2c(-c3cnn(-c4ccccc4)c3)ccnc2c1	10000 nM	86%	
c1ccc(-n2cc(-c3ccnc4c3CCC4)cn2)cc1	2300 nM	65%	
c1ccc(-n2cc(-c3ccnc4cc(OCCCN5CCOCC5)ccc34)cn2)cc1	2800 nM	64%	
CN(C)C(=O)Oc1ccc2c(-c3cnn(-c4ccccc4)c3)ccnc2c1	950 nM	82%	
c1ccc(-n2cc(-c3ccnc4ccccc34)cn2)nc1	2100 nM	92%	
Fc1ccc2c(-c3cnn(-c4ccccc4)c3)ccnc2c1	730 nM	120%	
O=C(Oc1ccc2c(-c3cnn(-c4ccccc4)c3)ccnc2c1)N1CCCC1	500 nM	120%	

SMILES	EC50 [1]	Emax [2]	further results
OCCCOc1ccc2c(-c3cnn(-c4ccccc4)c3)ccnc2c1	> 10000 nM	23%	
Fc1ccc(-n2cc(-c3ccnc4ccccc34)cn2)cc1	2900 nM	110%	
c1ccc(-n2cc(-c3ccncc3)cn2)cc1	> 10000 nM	39%	
CN(C)CCOc1ccc2c(-c3cnn(-c4ccccc4)c3)ccnc2c1	> 10000 nM	23%	
Fc1cccc(-n2cc(-c3ccnc4ccccc34)cn2)c1	3100 nM	92%	
COCCOc1ccc2c(-c3cnn(-c4ccccc4)c3)ccnc2c1	390 nM	110%	
c1ccc(-n2cc(-c3ccnc4cc(OCCCN5CCCCC5)ccc34)cn2)cc1	> 10000 nM	23%	
O=C(COc1ccc2c(-c3cnn(-c4ccccc4)c3)ccnc2c1)N1CCOCC1	> 10000 nM	17%	
Cc1nccc(-c2cnn(-c3ccccc3)c2)c1C	1200 nM	40%	
c1ccc(-n2cc(-c3ccnc4cc(OCCN5CCOCC5)ccc34)cn2)cc1	1800 nM	39%	
O=C(Oc1ccc2c(-c3cnn(-c4ccccc4)c3)ccnc2c1)N1CCOCC1	900 nM	84%	
c1ccc(-n2cc(-c3ccnc4cc(OCCN5CCCCC5)ccc34)cn2)cc1	6000 nM	71%	
c1ccc(-n2cc(-c3ccnc4[nH]ccc34)cn2)cc1	2700 nM	47%	
O=C(Oc1ccc2c(-c3cnn(-c4ccccc4)c3)ccnc2c1)N1CCCCC1	190 nM	130%	
CCOc1ccc2c(-c3cnn(-c4ccccc4)c3)ccnc2c1	540 nM	93%	
c1ccc(-n2cc(-c3ccnc4cc(OCCN5CCCC5)ccc34)cn2)cc1	> 10000 nM	9%	
c1csc(-n2cc(-c3ccnc4ccccc34)cn2)c1	4300 nM	52%	
Cc1cnccc1-c1cnn(-c2ccccc2)c1	5100 nM	90%	
CCN(CC)C(=O)Oc1ccc2c(-c3cnn(-c4ccccc4)c3)ccnc2c1	390 nM	120%	solubility kinetic [3]: 190 µM (≈ 73.4 µg/mL); Fu (Brain [4]): 0.4%; inhibition at 5 µM (CYP2C9): 88%; Ratio [10]: 11.2; Drug uptake (Cerebrospinal fluid): < 1 ng/mL; Cp (Plasma): 23 ng/mL; inhibition at 5 µM (CYP2B6): 61%; CL (Rattus norvegicus): 46 mL/min; Kp [6]: 1.5; solubility kinetic [7]: 1.4 µM (≈ 0.541 µg/mL); inhibition at 5 µM (CYP2C19): 83%; inhibition at 5 µM (CYP3A4): 35%; Drug uptake (Brain [8]): 35 ng/g; fraction unbound [9]: 0.012
CN(C)C(=O)COc1ccc2c(-c3cnn(-c4ccccc4)c3)ccnc2c1	> 10000 nM	11%	
c1ccc(-n2cc(-c3n[nH]c4ccccc34)cn2)cc1	2400 nM	42%	
